Assay results reported in the supplement of paper PMC10307832.

compound: CC1=CC(=C(N1C2=CC=C(C=C2)Cl)C)C(=O)CN3CCCCC3 [IU1-47] + CS(=O)(=O)CCNCc1ccc(-c2ccc3ncnc(Nc4ccc(OCc5cccc(F)c5)c(Cl)c4)c3c2)o1 [Lapatinib] (partner 2 µM); experiment: relative viability (nuclei count vs DMSO), 5 days (fraction); higher = more cells survive; details: first compound 0.08 µM
Summary of the method: (§1)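 For relative viability, nuclei counts in treated wells were divided by those in vehicle wells. Lung cancer cell lines had been pin-tool dosed in 1536-well plates the day after seeding and cultured for 5 days, then fixed and stained in one step (final 0.05% Triton X-100, 1% formaldehyde, 1 ug/ml Hoechst) and imaged at 4×. Doses were one drug alone or a fixed anchor-drug dose plus five library-drug doses (not always all listed) in √10 steps, and values are duplicate-plate medians.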

Cell Line	relative viability
BEN	0.723
HARA	0.849
HCC-78	0.721
NCI-H322M	0.574
LCLC-97TM1	1.34
NCI-H2009	0.997
A-427	1.01
NCI-H661	0.562
NCI-H1734	1.05
NCI-H460	1.2
NCI-H2347	1.13
SK-LU-1	0.857
201T	1.04
NCI-H1915	0.992
HCC-827	0.198
LXF-289	0.935
NCI-H23	1.04

Cell Line	relative viability
NCI-H647	1.02
CAL-12T	0.683
NCI-H1651	0.735
EPLC-272H	1.16
NCI-H2228	0.974
NCI-H1792	0.923
NCI-H1355	1.11
NCI-H3122	1.06
NCI-H1437	0.726
NCI-H1755	1.17
NCI-H2023	0.924
HCC-15	0.897
PC-14	0.273
EKVX	0.214
LC-2-ad	1.09
NCI-H1563	0.935

same assay, conditions: first compound 0.253 µM

Cell Line	relative viability
BEN	0.816
HARA	0.817
HCC-78	0.347
NCI-H322M	0.622
LCLC-97TM1	0.635
NCI-H2009	1.03
A-427	0.994
NCI-H661	0.546
NCI-H1734	1.15
NCI-H460	1.14
NCI-H2347	0.863
SK-LU-1	0.967
201T	1
NCI-H1915	1.01
HCC-827	0.215
LXF-289	0.921
NCI-H23	1.05

Cell Line	relative viability
NCI-H647	1.22
CAL-12T	0.765
NCI-H1651	0.743
EPLC-272H	0.925
NCI-H2228	0.885
NCI-H1792	0.999
NCI-H1355	1.11
NCI-H3122	1.06
NCI-H1437	0.716
NCI-H1755	1.1
NCI-H2023	0.872
HCC-15	0.854
PC-14	0.32
EKVX	0.27
LC-2-ad	0.928
NCI-H1563	0.914

same assay, conditions: first compound 0.8 µM

Cell Line	relative viability
BEN	1.09
HARA	0.884
HCC-78	1
NCI-H322M	0.507
LCLC-97TM1	0.92
NCI-H2009	1.07
A-427	0.977
NCI-H661	0.51
NCI-H1734	1.12
NCI-H460	0.997
NCI-H2347	1.04
SK-LU-1	0.82
201T	1.05
NCI-H1915	0.976
HCC-827	0.197
LXF-289	0.877
NCI-H23	1.26

Cell Line	relative viability
NCI-H647	1.37
CAL-12T	0.744
NCI-H1651	0.913
EPLC-272H	0.965
NCI-H2228	1.19
NCI-H1792	0.988
NCI-H1355	1.08
NCI-H3122	1.06
NCI-H1437	0.801
NCI-H1755	1.15
NCI-H2023	0.805
HCC-15	0.999
PC-14	0.407
EKVX	0.199
LC-2-ad	0.836
NCI-H1563	1.25

same assay, conditions: first compound 2.53 µM

Cell Line	relative viability
BEN	0.617
HARA	0.694
HCC-78	0.717
NCI-H322M	0.633
NCI-H2009	0.43
NCI-H661	0.338
NCI-H460	0.655
NCI-H2347	0.761
SK-LU-1	0.822
HCC-827	0.19
LXF-289	0.911
NCI-H23	0.995
NCI-H647	1.22
CAL-12T	0.591
NCI-H2228	0.833
NCI-H1792	0.956
NCI-H1355	0.627
NCI-H3122	1.09
NCI-H1437	0.76
NCI-H1755	1.11
NCI-H2023	0.334
HCC-15	0.677
PC-14	0.304
EKVX	0.214
LC-2-ad	1.25
NCI-H1563	0.793

same assay, conditions: first compound 8 µM

Cell Line	relative viability
BEN	0.633
HARA	0.563
HCC-78	0.712
NCI-H322M	0.561
LCLC-97TM1	0.78
NCI-H2009	1.54
A-427	0.873
NCI-H661	0.552
NCI-H1734	1.02
NCI-H460	0.7
NCI-H2347	0.834
SK-LU-1	0.839
201T	0.957
NCI-H1915	0.999
HCC-827	0.207
LXF-289	0.819
NCI-H23	1.25

Cell Line	relative viability
NCI-H647	0.49
CAL-12T	0.763
NCI-H1651	0.943
EPLC-272H	0.528
NCI-H2228	0.734
NCI-H1792	0.514
NCI-H1355	0.983
NCI-H3122	1.03
NCI-H1437	0.744
NCI-H1755	0.872
NCI-H2023	0.994
HCC-15	0.798
PC-14	0.304
EKVX	0.219
LC-2-ad	1.04
NCI-H1563	0.73

compound: CC1=CC(=C(N1C2=CC=C(C=C2)Cl)C)C(=O)CN3CCCCC3 [IU1-47] + C[C@]1(O)C[C@@H](c2nc(-c3ccc4ccc(-c5ccccc5)nc4c3)c3c(N)nccn32)C1 [Linsitinib] (partner 1 µM); experiment: as above; details: first compound 0.08 µM
Summary of the method: as §1

Cell Line	relative viability
BEN	1.02
HARA	1.19
HCC-78	0.555
NCI-H322M	1
LCLC-97TM1	0.177
NCI-H2009	1.19
A-427	1.13
NCI-H661	0.622
NCI-H1734	0.883
NCI-H460	1.21
NCI-H2347	1.06
SK-LU-1	1.16
201T	1.05
NCI-H1915	1.15
HCC-827	0.99
LXF-289	0.984
NCI-H23	0.607

Cell Line	relative viability
NCI-H647	1.22
CAL-12T	0.82
NCI-H1651	1.22
EPLC-272H	1.24
NCI-H2228	0.586
NCI-H1792	0.615
NCI-H1355	0.873
NCI-H3122	1
NCI-H1437	1.11
NCI-H1755	1.03
NCI-H2023	0.701
HCC-15	0.931
PC-14	1.02
EKVX	1.19
LC-2-ad	0.863
NCI-H1563	1.22

same assay, conditions: first compound 0.253 µM

Cell Line	relative viability
BEN	0.934
HARA	1.13
HCC-78	0.506
NCI-H322M	0.88
LCLC-97TM1	0.228
NCI-H2009	1.19
A-427	1.11
NCI-H661	0.644
NCI-H1734	0.954
NCI-H460	1.1
NCI-H2347	0.997
SK-LU-1	1.08
201T	1.02
NCI-H1915	1.12
HCC-827	0.92
LXF-289	0.998
NCI-H23	0.741

Cell Line	relative viability
NCI-H647	1.2
CAL-12T	0.828
NCI-H1651	1.14
EPLC-272H	1.27
NCI-H2228	0.555
NCI-H1792	0.581
NCI-H1355	0.844
NCI-H3122	1.07
NCI-H1437	1.02
NCI-H1755	1.03
NCI-H2023	0.686
HCC-15	0.967
PC-14	1.04
EKVX	1.18
LC-2-ad	0.91
NCI-H1563	1.05

same assay, conditions: first compound 0.8 µM

Cell Line	relative viability
BEN	1.08
HARA	1.08
HCC-78	0.521
NCI-H322M	1.03
LCLC-97TM1	0.168
NCI-H2009	1.13
A-427	1.19
NCI-H661	0.596
NCI-H1734	0.876
NCI-H460	0.986
NCI-H2347	0.973
SK-LU-1	1.32
201T	1.06
NCI-H1915	1.15
HCC-827	0.941
LXF-289	1.02
NCI-H23	0.686

Cell Line	relative viability
NCI-H647	1.12
CAL-12T	0.805
NCI-H1651	1
EPLC-272H	1.4
NCI-H2228	0.752
NCI-H1792	0.449
NCI-H1355	0.933
NCI-H3122	1.08
NCI-H1437	0.959
NCI-H1755	1.06
NCI-H2023	0.665
HCC-15	0.9
PC-14	1.01
EKVX	0.943
LC-2-ad	0.845
NCI-H1563	1.19

same assay, conditions: first compound 2.53 µM

Cell Line	relative viability
BEN	0.915
HARA	0.931
HCC-78	0.474
NCI-H322M	0.927
NCI-H2009	1.24
NCI-H661	0.419
NCI-H460	0.665
NCI-H2347	0.946
SK-LU-1	1.16
HCC-827	1.01
LXF-289	0.954
NCI-H23	0.665
NCI-H647	1.19
CAL-12T	0.887
NCI-H2228	0.521
NCI-H1792	0.299
NCI-H1355	0.74
NCI-H3122	1.15
NCI-H1437	1.01
NCI-H1755	1.05
NCI-H2023	0.617
HCC-15	0.917
PC-14	1.05
EKVX	1.1
LC-2-ad	0.853
NCI-H1563	1.07

same assay, conditions: first compound 8 µM

Cell Line	relative viability
BEN	0.863
HARA	0.678
HCC-78	0.417
NCI-H322M	0.887
LCLC-97TM1	0.175
NCI-H2009	1.24
A-427	1.21
NCI-H661	0.474
NCI-H1734	0.781
NCI-H460	0.559
NCI-H2347	0.954
SK-LU-1	1.17
201T	1.11
NCI-H1915	1.14
HCC-827	0.963
LXF-289	0.954
NCI-H23	0.533

Cell Line	relative viability
NCI-H647	1.01
CAL-12T	0.832
NCI-H1651	0.771
EPLC-272H	1.16
NCI-H2228	0.414
NCI-H1792	0.336
NCI-H1355	0.686
NCI-H3122	1.01
NCI-H1437	0.704
NCI-H1755	0.962
NCI-H2023	0.611
HCC-15	0.801
PC-14	0.94
EKVX	0.861
LC-2-ad	0.918
NCI-H1563	1.14

compound: Cc1nc(C(=O)NCC(=O)O)c(O)c2ccc(Oc3ccccc3)cc12 [FG-4592] + COc1cccc2cc(-c3nc([C@H]4CC[C@H](C(=O)O)CC4)n4ncnc(N)c34)[nH]c12 [OSI-027] (partner 0.5 µM); experiment: as above; details: first compound 0.08 µM
Summary of the method: as §1

Cell Line	relative viability
BEN	0.222
HARA	0.334
HCC-78	0.346
